# Tested on: human colon cancer cell line SW480
# Experiment: nanomotion drug sensitivity testing on cancer cells attached to microcantilever
# Type: cell-based
# Settings: SW480 cells in DMEM containing 10% FCS; 32 μM doxorubicin in Drug phase vs second Medium phase
# Experimental: In particular, these figures show the variance of the deflection of a microcantilever with attached human colon cancer cell line SW480 measured in cell culture medium and subsequent exposure to inhibitory concentrations of the drug doxorubicin (FIG. 25a) and the variance for cells kept in cell culture medium (FIG. 25b). The doxorubicin susceptible SW480 was cultured under standard laboratory conditions (i.e., cell culture medium (Dulbecco's Modified Eagle Medium (DMEM) containing 10% heat-inactivated fetal calf serum (FCS), 37° C., 5% CO2) in cell culture flasks. In preparation of nanomotion experiments, cells were detached, collected in cell culture medium, and washed in DMEM containing 10% FCS. The cell suspension was used for the attachment to the cantilever, and all nanomotion measurements with the device were performed in DMEM containing 10% FCS. The colon cancer cells were attached to the cantilever. Three phases of signal recording were performed: (i) Blank phase, where the deflections of the bare cantilevers are measured, (ii) the Medium phase, where the deflections of the cantilever with attached SW480 were measured followed by (iii) the Drug phase, where the deflections of the cantilever with attached SW480 after exposure to a drug were recorded or a second Medium phase without doxorubicin. […]
compound,measurement,value
COc1cccc2c1C(=O)c1c(O)c3c(c(O)c1C2=O)C[C@@](O)(C(=O)CO)C[C@@H]3O[C@H]1C[C@H](N)[C@H](O)[C@H](C)O1 [doxorubicin],variance of the nanomotion signal (cantilever deflection) after drug exposure,decrease in the variance after exposure to the drug is prominent

# From patent publication US20250198902A1, “METHOD OF ANALYSING THE MOTIONAL ACTIVITY OF PARTICLES” (RESISTELL AG, priority 2022, published 2025)
